The values below come from US8822517B2, “Arylosulfonamides for the treatment of CNS diseases” (Adamed SP. Z O.O., priority 2010, dated 2014).

The target of assay [1] is T1, serotoninergic 5-HT1A receptor (Homo sapiens, UniProt P08908).
T1 sequence (P08908 1-422): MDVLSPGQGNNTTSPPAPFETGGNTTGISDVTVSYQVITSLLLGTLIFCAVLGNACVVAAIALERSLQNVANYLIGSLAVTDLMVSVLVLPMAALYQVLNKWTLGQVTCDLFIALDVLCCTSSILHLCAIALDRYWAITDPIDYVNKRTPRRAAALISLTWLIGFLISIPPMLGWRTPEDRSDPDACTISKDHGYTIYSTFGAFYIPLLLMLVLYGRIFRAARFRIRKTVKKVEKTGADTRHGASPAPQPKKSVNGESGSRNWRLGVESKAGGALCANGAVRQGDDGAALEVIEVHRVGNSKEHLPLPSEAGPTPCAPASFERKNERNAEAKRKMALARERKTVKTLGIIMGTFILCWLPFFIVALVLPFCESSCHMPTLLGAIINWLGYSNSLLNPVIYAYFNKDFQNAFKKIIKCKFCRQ
The experiment in a line: Cellular functional assay, serotoninergic 5-HT1A receptor (agonism/antagonism). The class given is cell-based. To be noted: for inhibition at 1 µM: CHO, read-out: 5-HT1A-antag. [%]; for activation at 1 µM: agonist effect, percent of control specific agonist response (100 nM 8-OH-DPAT for control), 1×10^−6 M, 5-HT1A (h), CHO cells, read-out: 5-HT1A-ag [%]. As for the experimental part: (§1) The compounds were tested at the concentration of 1×10^−6M.
(§2) In the Tables ag refers to agonism, and antag to antagonism).

The target in the next assay is T2, muscarinic M3 receptor (Homo sapiens, UniProt P20309).
T2 construct: expressed in transfected cells; host or cells: CHO cells
The experiment in a line: Binding assay M3 (h), [3H]4-DAMP, CHO cells. The settings on record: read-out: M3 [%]. The method in brief: (§3)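 Radioligand displacement at 1×10^−6 M compound, with detection by scintillation counting. Nonspecific signal is measured using an excess of non-radioactive ligand.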

Assay [2] has as its target T3, serotoninergic 5-HT6 receptor (Homo sapiens, UniProt P50406). The experiment in a line: Cellular functional assay, serotoninergic 5-HT6 receptor (agonism/antagonism). The class given is cell-based. On the procedure: as §1, §2
In assay [3] the target is histaminergic H1 receptor (Homo sapiens, UniProt P35367). As to the kind of experiment: Binding assay H1 (h), [3H]pyrilamine, HEK-293 cells. Set-up: expressed in transfected cells; host or cells: HEK-293 cells. To be noted: read-out: H1 [%]. Put shortly:
as §3

The next assay concerns the target T4, adrenergic α1A receptor (Homo sapiens, UniProt P35348).
T4 sequence (P35348 1-466): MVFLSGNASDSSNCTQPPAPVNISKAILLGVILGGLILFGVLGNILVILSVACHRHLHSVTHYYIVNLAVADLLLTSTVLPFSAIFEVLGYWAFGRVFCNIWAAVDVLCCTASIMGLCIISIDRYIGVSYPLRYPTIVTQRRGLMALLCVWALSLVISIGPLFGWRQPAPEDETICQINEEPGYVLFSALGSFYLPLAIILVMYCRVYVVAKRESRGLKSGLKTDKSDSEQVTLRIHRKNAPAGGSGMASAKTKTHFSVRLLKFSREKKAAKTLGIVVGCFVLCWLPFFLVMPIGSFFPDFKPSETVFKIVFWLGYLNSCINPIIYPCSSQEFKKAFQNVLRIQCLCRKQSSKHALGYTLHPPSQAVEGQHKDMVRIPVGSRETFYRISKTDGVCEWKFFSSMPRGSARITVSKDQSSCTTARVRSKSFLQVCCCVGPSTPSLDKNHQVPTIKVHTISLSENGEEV
As to the kind of experiment: Cellular functional assay, adrenergic α1A receptor (agonism/antagonism). Type of assay: cell-based. The settings on record: for activation at 1 µM: agonist effect, percent of control specific agonist response, compounds tested at 1×10^−6M, read-out: α1A -ag [%]; for inhibition at 1 µM: read-out: α1A -antag. [%]. Put shortly: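 Human receptors tested in cell-based functional format for both agonist and antagonist modes. Single compound concentration of 1×10^−6M.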

Assay [4] deals with T5, serotonine transporter (SERT) receptor (Homo sapiens, UniProt P31645).
T5 construct: expressed in transfected cells; host or cells: CHO cells
As to the kind of experiment: Binding assay SERT (h), [3H]imipramine, CHO cells. To be noted: read-out: SERT [%]. Put shortly: as §3

The next assay deals with T6, adrenergic α2C receptor (Homo sapiens, UniProt P18825).
T6 sequence (P18825 1-462): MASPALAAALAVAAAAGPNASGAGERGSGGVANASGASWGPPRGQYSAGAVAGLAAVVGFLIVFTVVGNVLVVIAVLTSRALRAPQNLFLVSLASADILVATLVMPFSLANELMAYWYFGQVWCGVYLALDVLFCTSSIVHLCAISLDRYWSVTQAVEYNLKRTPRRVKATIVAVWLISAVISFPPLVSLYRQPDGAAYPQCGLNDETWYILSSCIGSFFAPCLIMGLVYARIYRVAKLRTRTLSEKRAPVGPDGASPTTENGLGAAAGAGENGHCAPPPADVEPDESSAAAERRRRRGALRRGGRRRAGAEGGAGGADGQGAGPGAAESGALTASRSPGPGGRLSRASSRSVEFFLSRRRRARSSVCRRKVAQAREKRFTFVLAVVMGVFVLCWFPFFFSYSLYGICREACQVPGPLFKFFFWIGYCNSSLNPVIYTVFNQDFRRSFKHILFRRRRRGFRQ
As to the kind of experiment: Cellular functional assay, adrenergic α2C receptor (agonism/antagonism). Type of assay: cell-based. The settings on record: for activation at 1 µM: agonist effect, percent of control specific agonist response, compounds tested at 1×10^−6M, read-out: α2C −ag [%]; for inhibition at 1 µM: read-out: α2C −antag. [%]. On the procedure:
as §1, §2

Assay [5] deals with T3, serotoninergic 5-HT6 receptor. As to the kind of experiment: Binding assay 5-HT6 (h), [3H]LSD, CHO cells. The settings on record: read-out: 5-HT6. Set-up: expressed in transfected cells; host or cells: CHO cells. The method in brief: as §3
For another assay, the target named is dopaminergic D3 receptor (Homo sapiens, UniProt P35462). The experiment in a line: Cellular functional assay, dopaminergic D3 receptor (agonism/antagonism). The class given is cell-based. The settings on record: for inhibition at 1 µM: CHO, read-out: D3-antag. [%]; for activation at 1 µM: agonist effect, percent of control specific agonist response (300 nM dopamine for control), 1×10^−6 M, D3 (h), CHO cells, read-out: D3-ag [%]. On the procedure: as §1, §2

Another assay concerns the target dopaminergic D2 receptor (Homo sapiens, UniProt P14416). The experiment in a line: Binding assay D2S (h), [3H]methyl-spiperone, HEK-293 cells. To be noted: read-out: D2 [%]. More on the design: expressed in transfected cells; host or cells: HEK-293 cells. The method in brief: as §3
The target in assay [6] is serotoninergic 5-HT7 receptor (Homo sapiens, UniProt P34969). As to the kind of experiment: Binding assay 5-HT7 (h), [3H]LSD, CHO cells. More on the design: expressed in transfected cells; host or cells: CHO cells. To be noted: read-out: 5-HT7. Put shortly: as §3
Sequence of serotoninergic 5-HT7 receptor (P34969 whole entry): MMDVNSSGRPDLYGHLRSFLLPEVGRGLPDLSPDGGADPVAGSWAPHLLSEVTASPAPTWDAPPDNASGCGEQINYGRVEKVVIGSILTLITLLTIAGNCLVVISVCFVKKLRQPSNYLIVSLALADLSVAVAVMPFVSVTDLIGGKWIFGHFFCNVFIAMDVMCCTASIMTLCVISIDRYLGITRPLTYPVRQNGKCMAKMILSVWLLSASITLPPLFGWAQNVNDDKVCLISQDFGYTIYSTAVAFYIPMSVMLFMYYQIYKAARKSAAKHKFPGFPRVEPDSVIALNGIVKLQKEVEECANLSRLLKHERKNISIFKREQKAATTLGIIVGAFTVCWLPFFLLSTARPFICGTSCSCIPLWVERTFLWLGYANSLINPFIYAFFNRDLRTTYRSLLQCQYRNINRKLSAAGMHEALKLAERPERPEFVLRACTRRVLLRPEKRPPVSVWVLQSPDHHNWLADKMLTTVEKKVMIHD

Sequence of histaminergic H1 receptor (P35367 whole entry): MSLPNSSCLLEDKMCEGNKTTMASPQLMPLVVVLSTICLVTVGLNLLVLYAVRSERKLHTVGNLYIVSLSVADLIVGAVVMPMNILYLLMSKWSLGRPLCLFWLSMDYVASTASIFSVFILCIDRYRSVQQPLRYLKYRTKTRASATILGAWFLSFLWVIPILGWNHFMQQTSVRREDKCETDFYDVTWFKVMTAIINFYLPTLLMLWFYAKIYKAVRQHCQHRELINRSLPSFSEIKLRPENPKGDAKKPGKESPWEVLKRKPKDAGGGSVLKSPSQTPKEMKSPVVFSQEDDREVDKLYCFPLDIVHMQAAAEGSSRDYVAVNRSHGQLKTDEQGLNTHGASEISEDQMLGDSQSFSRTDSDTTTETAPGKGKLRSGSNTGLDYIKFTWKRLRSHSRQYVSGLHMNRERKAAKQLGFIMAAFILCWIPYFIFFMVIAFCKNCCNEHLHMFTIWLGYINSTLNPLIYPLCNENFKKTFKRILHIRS
T5 sequence (P31645 whole entry): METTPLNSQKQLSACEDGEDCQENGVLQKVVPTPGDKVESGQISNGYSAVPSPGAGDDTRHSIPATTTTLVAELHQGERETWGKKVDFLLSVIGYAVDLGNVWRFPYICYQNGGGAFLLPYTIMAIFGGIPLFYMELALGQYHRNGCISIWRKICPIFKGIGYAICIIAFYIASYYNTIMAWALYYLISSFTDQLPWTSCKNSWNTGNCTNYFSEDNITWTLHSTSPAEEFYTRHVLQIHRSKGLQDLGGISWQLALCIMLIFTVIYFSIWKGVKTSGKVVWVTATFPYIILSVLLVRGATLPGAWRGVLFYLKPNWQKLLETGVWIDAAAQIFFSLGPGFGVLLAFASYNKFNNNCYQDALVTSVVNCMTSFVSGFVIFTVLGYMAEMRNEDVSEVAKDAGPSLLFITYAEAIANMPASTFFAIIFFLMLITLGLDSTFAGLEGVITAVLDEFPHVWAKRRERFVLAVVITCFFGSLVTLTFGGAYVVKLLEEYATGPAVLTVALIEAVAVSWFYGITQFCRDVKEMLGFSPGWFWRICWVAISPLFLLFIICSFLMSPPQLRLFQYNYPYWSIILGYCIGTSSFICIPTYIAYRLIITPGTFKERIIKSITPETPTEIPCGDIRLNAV
T2 sequence (P20309 whole entry): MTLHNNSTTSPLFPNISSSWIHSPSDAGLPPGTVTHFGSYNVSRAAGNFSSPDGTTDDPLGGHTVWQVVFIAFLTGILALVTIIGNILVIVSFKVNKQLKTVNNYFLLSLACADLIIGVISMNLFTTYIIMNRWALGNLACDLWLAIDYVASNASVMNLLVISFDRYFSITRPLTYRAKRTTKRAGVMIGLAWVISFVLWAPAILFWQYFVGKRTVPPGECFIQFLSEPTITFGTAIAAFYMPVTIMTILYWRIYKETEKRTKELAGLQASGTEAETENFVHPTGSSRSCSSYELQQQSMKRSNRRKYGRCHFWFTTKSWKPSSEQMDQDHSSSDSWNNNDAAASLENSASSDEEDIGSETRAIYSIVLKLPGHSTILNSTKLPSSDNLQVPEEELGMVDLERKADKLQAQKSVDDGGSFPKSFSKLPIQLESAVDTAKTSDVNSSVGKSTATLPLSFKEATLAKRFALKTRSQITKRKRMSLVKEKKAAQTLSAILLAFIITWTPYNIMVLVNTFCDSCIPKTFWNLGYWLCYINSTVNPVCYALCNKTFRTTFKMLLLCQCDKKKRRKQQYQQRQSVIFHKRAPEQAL
Sequence of dopaminergic D2 receptor (P14416 1-414 isoform P14416-2): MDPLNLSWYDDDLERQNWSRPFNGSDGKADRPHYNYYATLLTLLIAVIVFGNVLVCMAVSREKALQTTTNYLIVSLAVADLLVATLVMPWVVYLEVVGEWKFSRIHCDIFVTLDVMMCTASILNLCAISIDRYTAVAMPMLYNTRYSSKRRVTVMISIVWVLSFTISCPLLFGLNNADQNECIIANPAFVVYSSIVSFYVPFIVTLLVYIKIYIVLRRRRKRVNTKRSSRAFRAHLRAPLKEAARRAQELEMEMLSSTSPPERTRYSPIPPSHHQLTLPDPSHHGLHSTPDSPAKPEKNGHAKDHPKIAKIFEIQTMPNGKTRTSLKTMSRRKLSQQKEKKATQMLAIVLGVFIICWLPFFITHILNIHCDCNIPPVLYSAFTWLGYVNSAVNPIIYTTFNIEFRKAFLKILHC
Sequence of dopaminergic D3 receptor (P35462 whole entry): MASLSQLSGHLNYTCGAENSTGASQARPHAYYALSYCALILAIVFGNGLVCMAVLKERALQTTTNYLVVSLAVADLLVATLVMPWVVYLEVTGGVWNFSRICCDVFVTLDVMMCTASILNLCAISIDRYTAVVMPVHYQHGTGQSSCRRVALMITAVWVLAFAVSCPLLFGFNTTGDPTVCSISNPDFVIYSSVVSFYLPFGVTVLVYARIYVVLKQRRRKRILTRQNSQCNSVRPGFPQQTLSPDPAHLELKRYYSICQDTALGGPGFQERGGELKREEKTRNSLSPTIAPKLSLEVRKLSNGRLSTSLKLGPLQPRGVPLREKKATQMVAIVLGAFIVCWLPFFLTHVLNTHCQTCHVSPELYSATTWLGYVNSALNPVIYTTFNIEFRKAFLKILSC
T3 sequence (P50406 whole entry): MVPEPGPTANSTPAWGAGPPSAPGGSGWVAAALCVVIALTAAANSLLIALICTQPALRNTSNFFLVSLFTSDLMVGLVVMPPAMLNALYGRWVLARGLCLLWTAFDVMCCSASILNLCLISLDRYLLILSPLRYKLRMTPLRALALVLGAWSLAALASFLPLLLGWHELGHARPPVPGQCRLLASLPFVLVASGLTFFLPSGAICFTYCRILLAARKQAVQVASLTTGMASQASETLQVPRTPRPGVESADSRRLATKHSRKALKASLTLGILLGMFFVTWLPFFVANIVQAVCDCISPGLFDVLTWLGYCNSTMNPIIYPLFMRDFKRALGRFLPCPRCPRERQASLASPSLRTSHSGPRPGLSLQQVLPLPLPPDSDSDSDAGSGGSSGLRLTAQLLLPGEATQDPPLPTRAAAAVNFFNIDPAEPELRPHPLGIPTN

As for `Cc1cccc(S(=O)(=O)NCCCN2CCN(c3nsc4ccccc34)CC2)c1` [Compound 7, N-(3-(4-(1,2-Benzothiazol-3-yl)piperazin-1-yl)propyl)-3-methylbenzenesulphonamide], the inhibition at 1 µM in [1] was 51%; at muscarinic M3 receptor, 13%; in assay [2] (read-out: 5-HT6-antag. [%]) it was 65%; in assay [3], 93%; on adrenergic α1A receptor, 100%; in assay [4] it was 88%. Also, the inhibition at 1 µM amounted to 2% at adrenergic α2C receptor; 98% in [5]; 66% on dopaminergic D3 receptor; 95% on dopaminergic D2 receptor; 97% in assay [6]. The activation at 1 µM in assay [1] is 59%; in assay [2] (agonist effect, percent of control specific agonist response, compounds tested at 1×10^−6M, read-out: 5-HT6-ag [%]), 1%; on adrenergic α1A receptor it was 0%; on adrenergic α2C receptor it was -6%; at dopaminergic D3 receptor, -21%.

As for `O=S(=O)(NCCCCN1CCN(c2cccc3[nH]ccc23)CC1)c1cc2ccccc2s1` [Compound 33, N-{4-[4-(1H-Indol-4-yl)piperazin-1-yl]butyl}-1-benzothiophene-2-sulphonamide], the inhibition at 1 µM in assay [1] is 24%; at muscarinic M3 receptor it was 5%; in [3] it was 56%; at adrenergic α1A receptor, 100%; in [4], -4%; on adrenergic α2C receptor, 6%. Besides, the inhibition at 1 µM was 42% in assay [5], -1% on dopaminergic D3 receptor, 97% at dopaminergic D2 receptor and 99% in [6]. Also, the activation at 1 µM was 63% in [1], 0% at adrenergic α1A receptor, -1% at adrenergic α2C receptor and 60% at dopaminergic D3 receptor.

As for `O=S(=O)(NCCCCN1CCN(c2cccc3[nH]ccc23)CC1)c1cccc(Cl)c1` [Compound 113, N-[4-[4-(1H-Indol-4-yl)piperazin-1-yl]butyl]-3-chlorobenzenesulphonamide], the inhibition at 1 µM in assay [1] is 92%; at muscarinic M3 receptor, 29%; in assay [3], 60%; at adrenergic α1A receptor it was 100%; in assay [4], 28%; at adrenergic α2C receptor, 53%. The inhibition at 1 µM worked out at 74% in assay [5], 30% on dopaminergic D3 receptor, 98% on dopaminergic D2 receptor and 97% in [6]. For the same compound, the activation at 1 µM in [1] is 32%; on adrenergic α1A receptor, 1%; on adrenergic α2C receptor, 13%; on dopaminergic D3 receptor, 39%.

`O=S(=O)(NCCCCN1CCN(c2cccc3[nH]ccc23)CC1)c1ccc2ccccc2c1` [Compound 26, N-{4-[4-(1H-Indol-4-yl)piperazin-1-yl]butyl}naphthalene-2-sulphonamide]: the inhibition at 1 µM in [1] came to 22%; at muscarinic M3 receptor, 17%; in assay [3], 52%; at adrenergic α1A receptor, 100%; in assay [4], 14%; on adrenergic α2C receptor it was 53%. In addition, the inhibition at 1 µM in assay [5] was 51%; at dopaminergic D3 receptor it was -8%; on dopaminergic D2 receptor it was 97%; in [6], 98%. Further, the activation at 1 µM in assay [1] came to 67%; at adrenergic α1A receptor it was 0%; at adrenergic α2C receptor, 25%; on dopaminergic D3 receptor it was 64%.

As to `O=S(=O)(NCCCCN1CCN(c2cccc3[nH]ccc23)CC1)c1cnc2ccccn12` [Compound 30, N-{4-[4-(1H-Indol-4-yl)piperazin-1-yl]butyl}-imidazo[1,2-a]pyridine-3-sulphonamide], the inhibition at 1 µM amounted to 86% in assay [1]; 66% on muscarinic M3 receptor; 40% in assay [3]; 97% at adrenergic α1A receptor; 14% in assay [4]; 35% on adrenergic α2C receptor. Further, the inhibition at 1 µM in assay [5] was determined as 5%; on dopaminergic D3 receptor, 35%; on dopaminergic D2 receptor, 98%; in [6], 96%. In addition, the activation at 1 µM stood at 22% in assay [1], 0% on adrenergic α1A receptor, 18% at adrenergic α2C receptor and 52% at dopaminergic D3 receptor.

As to `O=S(=O)(NCCCCN1CCN(c2cccc3[nH]ccc23)CC1)c1cc2ccc(Cl)cc2s1` [Compound 363, 6-Chloro-N-[4-[4-(1H-indol-4-yl)piperazin-1-yl]butyl]benzothiophene-2-sulphonamide], the inhibition at 1 µM in assay [1] is 27%; on muscarinic M3 receptor, 15%; in assay [3] it was 70%; on adrenergic α1A receptor it was 100%; in assay [4], 32%; at adrenergic α2C receptor, 42%. The inhibition at 1 µM in assay [5] is 84%; at dopaminergic D3 receptor it was -3%; at dopaminergic D2 receptor, 99%; in assay [6] it was 98%. Further, the activation at 1 µM in [1] is 78%; at adrenergic α1A receptor it was 0%; on adrenergic α2C receptor, 17%; on dopaminergic D3 receptor, 65%.

Turning to `O=S(=O)(NCCCCN1CCN(c2cccc3[nH]ccc23)CC1)c1ccc(F)cc1` [Compound 359, 4-Fluoro-N-[4-[4-(1H-indol-4-yl)piperazin-1-yl]butyl]benzenesulphonamide], the inhibition at 1 µM was found to be 94% in assay [1]; 63% on muscarinic M3 receptor; 60% in assay [3]; 100% on adrenergic α1A receptor; 33% in assay [4]; 38% on adrenergic α2C receptor. Moreover, the inhibition at 1 µM in [5] came to 42%; on dopaminergic D3 receptor it was 79%; at dopaminergic D2 receptor it was 96%; in assay [6] it was 95%. Moreover, the activation at 1 µM in assay [1] came out at 22%; on adrenergic α1A receptor, 1%; on adrenergic α2C receptor, 13%; at dopaminergic D3 receptor, 25%.
